In ChEMBL document CHEMBL1150719, “Constituents of Tritonia crocosmaeflora, I. Tricrozarin A, a novel antimicrobial naphthazarin derivative” (1987):
In brackets after ≈: the same amount, converted by molar mass.

Experiments:
Type in all cases: functional
Saccharomyces = assay: Antifungal activity against Saccharomyces sake KF26 at 27 degC by paper disk assay
Candida albicans = assay: Antifungal activity against Candida albicans KF1 at 27 degC by paper disk assay
Mucor racemosus = assay: Antifungal activity against Mucor racemosus IFO 5403 at 27 degC by paper disk assay
Micrococcus luteus = assay: Antibacterial activity against Micrococcus luteus ATCC 9341 after 24 hrs at 37 degC by paper disk assay; details: ATCC 9341, 24 h
Bacillus subtilis = assay: Antibacterial activity against Bacillus subtilis PCI 219 after 24 hrs at 37 degC by paper disk assay; details: PCI 219, 24 h
Aspergillus niger = assay: Antifungal activity against Aspergillus niger ATCC 6275 at 27 degC by paper disk assay

MIC (Saccharomyces): 81.3 mg/L (≈ 276 µM)
MIC (Candida albicans): 81.3 mg/L (≈ 276 µM)
MIC (Mucor racemosus): 10.2 mg/L (≈ 34.7 µM)
MIC (Micrococcus luteus): 112 mg/L (≈ 381 µM)
MIC (Bacillus subtilis): 5.1 mg/L (≈ 17.3 µM)
MIC (Aspergillus niger): 81.3 mg/L (≈ 276 µM)
SMILES: COC1=C(OC)C(=O)c2c(O)c3c(c(O)c2C1=O)OCO3 [TRICROZARIN A]
